Measured values published in patent US10947252B2, “Inhibitors of KEAP1-Nrf2 protein-protein interaction” (Janssen Pharmaceutica NV, priority 2018, dated 2021).

Legend:
[1] = target: Kelch domain of human KEAP1 (321-624 aa) (Homo sapiens (Human), UniProt Q14145); experiment: KEAP1 KELCH ThermoFluor binding assay; conditions: KEAP Kelch […], 1,8-ANS, pH 7.0, average of results obtained, read-out: Tf Kd;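 further: Ligand-induced melting temperature shift of E. coli-expressed KEAP1 Kelch protein, Kd estimated from concentration-response curves of ΔTm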
[2] = test system: Glo-Response ARE-luc2P HEK293 cell line; experiment: ARE luciferase reporter cell-based assay; conditions: Homo sapiens, HEK293, 24 h, average of results obtained;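 further: luciferase signal tracks Nrf2 activation of the ARE once compounds disrupt KEAP1-Nrf2 binding, read with One-Glo reagent, DMSO serving as low control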

Kelch domain of human KEAP1 (321-624 aa), sequence (Q14145 321-624): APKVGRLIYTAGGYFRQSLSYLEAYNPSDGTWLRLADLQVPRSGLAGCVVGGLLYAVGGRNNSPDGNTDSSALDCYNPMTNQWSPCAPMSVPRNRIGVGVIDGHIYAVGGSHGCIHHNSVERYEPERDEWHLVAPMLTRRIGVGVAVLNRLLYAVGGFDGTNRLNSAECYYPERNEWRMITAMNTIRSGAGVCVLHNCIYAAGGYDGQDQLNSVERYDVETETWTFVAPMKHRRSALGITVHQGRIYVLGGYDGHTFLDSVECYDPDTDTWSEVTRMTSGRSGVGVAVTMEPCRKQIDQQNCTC

Row | Structure (SMILES) | Kd [1] [nM] | EC50 [2] [nM]
1 | Cc1ccc([C@H](c2ccn3c(C(F)(F)F)nnc3c2C)C(C)(C)C(=O)O)cc1CN1CC2(CCOCC2)Oc2nc(N[C@H](C)CN3CCCCC3)c(C)cc2S1(=O)=O (single isomer, unassigned) [Example 603, (*R)-2,2-Dimethyl-3-(4-methyl-3-((8′-methyl-1′,1′-dioxido-7′-(((*R)-1-(piperidin-1-yl)propan-2-yl)amino)-2,3,5,6-tetrahydrospiro[pyran-4,4′-pyrido[2,3-b][1,4,5]oxathiazepin]-2′(3′H)-yl)methyl)phenyl)-3-(8-methyl-3-(trifluoromethyl)-[1,2,4]triazolo[4,3-a]pyridine-7-yl)propanoic Acid] | < 1 | 55
2 | Cc1ccc([C@@H](CC(=O)O)c2ccn3c(C(F)(F)F)nnc3c2C)cc1CN1C[C@H]2CCCCN2c2ncccc2S1(=O)=O (single isomer, unassigned) [Example 273, (*R)-3-(3-(((*R)-5,5-Dioxido-7,7a,8,9,10,11-hexahydro-6H-dipyrido[2,1-d:2′,3′-f][1,2,5]thiadiazepin-6-yl)methyl)-4-methylphenyl)-3-(8-methyl-3-(trifluoromethyl)-[1,2,4]triazolo[4,3-a]pyridin-7-yl)propanoic Acid] | < 1 | 25.8
3 | Cc1ccc([C@@H](c2ccn3c(C(F)F)nnc3c2C)C(C)(C)C(=O)O)nc1CN1CC2(CCOCC2)Oc2nc(OCCN3CCCC3)c(C)cc2S1(=O)=O (single isomer, unassigned) [Example 644, (*S)-3-(3-(Difluoromethyl)-8-methyl-[1,2,4]triazolo[4,3-a]pyridin-7-yl)-2,2-dimethyl-3-(5-methyl-6-((8′-methyl-1′,1′-dioxido-7′-(2-(pyrrolidin-1-yl)ethoxy)-2,3,5,6-tetrahydrospiro[pyran-4,4′-pyrido[2,3-b][1,4,5]oxathiazepin]-2′(3′H)-yl)methyl)pyridin-2-yl)propanoic Acid] | < 1 | 51.7
4 | CC[C@@H]1CN(Cc2nc(C(CC(=O)O)c3ccc4c(nnn4C4CC4)c3C)ccc2C)S(=O)(=O)c2cccnc2O1 (mixture of isomers) [Example 174, (R/S)-3-(1-Cyclopropyl-4-methyl-1H-benzo[d][1,2,3]triazol-5-yl)-3-(6-(((R)-4-ethyl-1,1-dioxido-3,4-dihydro-2H-pyrido[2,3-b][1,4,5]oxathiazepin-2-yl)methyl)-5-methylpyridin-2-yl)propanoic Acid] | < 1 | 15
5 | CCn1nnc2c(C)c(C(CC(=O)O)c3ccc(C)c(CN4CC5(CCOCC5)Oc5ccc(F)cc5S4(=O)=O)n3)ccc21 (racemic) [Example 417, 3-(1-Ethyl-4-methyl-1H-benzo[d][1,2,3]triazol-5-yl)-3-(6-((8-fluoro-1,1-dioxido-2′,3′,5′,6′-tetrahydrospiro[benzo[b][1,4,5]oxathiazepine-4,4′-pyran]-2(3H)-yl)methyl)-5-methylpyridin-2-yl)propanoic acid] | < 1 | 1.77
6 | Cc1ccc([C@@H](CC(=O)O)c2cc(OC(F)F)c3c(c2)nnn3C)cc1CN1C[C@H]2CCCN2c2ncccc2S1(=O)=O (single isomer, unassigned) [Example 248, (*R)-3-(7-(Difluoromethoxy)-1-methyl-1H-benzo[d][1,2,3]triazol-5-yl)-3-(3-(((R)-5,5-dioxido-7a,8,9,10-tetrahydropyrido[2,3-f]pyrrolo[2,1-d][1,2,5]thiadiazepin-6(7H)-yl)methyl)-4-methylphenyl)propanoic Acid] | < 1 | 48.6
7 | Cc1cnc2c(c1)S(=O)(=O)N(Cc1nc([C@@H](c3ccn4c(C(F)F)nnc4c3C)C(C)(C)C(=O)O)ccc1C)CC1(CC1)O2 (single isomer, unassigned) [Example 334, (*S)-3-(3-(Difluoromethyl)-8-methyl-[1,2,4]triazolo[4,3-a]pyridin-7-yl)-2,2-dimethyl-3-(5-methyl-6-((8′-methyl-1′,1′-dioxidospiro[cyclopropane-1,4′-pyrido[2,3-b][1,4,5]oxathiazepin]-2′(3′H)-yl)methyl)pyridin-2-yl)propanoic Acid] | < 1 | 5.2
8 | Cc1ccc([C@@H](c2ccn3c(C(F)F)nnc3c2C)C(C)(C)C(=O)O)nc1CN1CC2(CC2)Oc2nc(OCCN3CCCCC3)c(C)cc2S1(=O)=O (single isomer, unassigned) [Example 356, (*S)-3-(3-(Difluoromethyl)-8-methyl-[1,2,4]triazolo[4,3-a]pyridin-7-yl)-2,2-dimethyl-3-(5-methyl-6-((8′-methyl-1′,1′-dioxido-7′-(2-(piperidin-1-yl)ethoxy)spiro[cyclopropane-1,4′-pyrido[2,3-b][1,4,5]oxathiazepin]-2′(3′H)-yl)methyl)pyridin-2-yl)propanoic Acid] | 3550 | 11.8
9 | Cc1cnc2c(c1)S(=O)(=O)N(Cc1cc([C@H](c3ccc4c(nnn4C4CC4)c3C)C(C)(C)C(=O)O)ccc1C)CC1(CNC1)O2 (single isomer, unassigned) [Example 645, (*R)-3-(1-Cyclopropyl-4-methyl-1H-benzo[d][1,2,3]triazol-5-yl)-2,2-dimethyl-3-(4-methyl-3-((8′-methyl-1′,1′-dioxidospiro[azetidine-3,4′-pyrido[2,3-b][1,4,5]oxathiazepin]-2′(3′H)-yl)methyl)phenyl)propanoic Acid] | < 1 | 1.5
10 | Cc1ccc([C@H](c2ccn3c(C(F)(F)F)nnc3c2C)C(C)(C)C(=O)O)cc1CN1CC2(CC2)Oc2nc(OCCN3CCCC3)c(C)cc2S1(=O)=O (single isomer, unassigned) [Example 658, (*R)-2,2-dimethyl-3-(4-methyl-3-((8′-methyl-1′,1′-dioxido-7′-(2-(pyrrolidin-1-yl)ethoxy)spiro[cyclopropane-1,4′-pyrido[2,3-b][1,4,5]oxathiazepin]-2′(3′H)-yl)methyl)phenyl)-3-(8-methyl-3-(trifluoromethyl)-[1,2,4]triazolo[4,3-a]pyridin-7-yl)propanoic Acid] | 1210 | 6050
11 | CCn1nnc2c(C)c(C(CC(=O)O)c3ccc(C)c(CN4CC5(COC5)Oc5ncccc5S4(=O)=O)n3)ccc21 (racemic) [Example 240, (R/S)-3-(6-((1′,1′-Dioxidospiro[oxetane-3,4′-pyrido[2,3-b][1,4,5]oxathiazepin]-2′(3′H)-yl)methyl)-5-methylpyridin-2-yl)-3-(1-ethyl-4-methyl-1H-benzo[d][1,2,3]triazol-5-yl)propanoic Acid] | < 1 | 85
12 | Cc1ccc(C(CC(=O)O)c2ccn3c(C(F)F)nnc3c2C)cc1CN1CC2(CC2)Oc2ncc(F)cc2S1(=O)=O (stereo not shown) [Example 526, 3-(3-(Difluoromethyl)-8-methyl-[1,2,4]triazolo[4,3-a]pyridin-7-yl)-3-(3-((8′-fluoro-1′,1′-dioxidospiro[cyclopropane-1,4′-pyrido[2,3-b][1,4,5]oxathiazepin]-2′(3′H)-yl)methyl)-4-methylphenyl)propanoic Acid] | < 1 | 60.1
13 | Cc1cnc2c(c1)S(=O)(=O)N(Cc1nc([C@H](c3ccn4c(C(F)F)nnc4c3C)C(C)(C)C(=O)O)ccc1C)CC1(CNC1)O2 (single isomer, unassigned) [Example 631, (*R)-3-(3-(Difluoromethyl)-8-methyl-[1,2,4]triazolo[4,3-a]pyridin-7-yl)-2,2-dimethyl-3-(5-methyl-6-((8′-methyl-1′,1′-dioxidospiro[azetidine-3,4′-pyrido[2,3-b][1,4,5]oxathiazepin]-2′(3′H)-yl)methyl)pyridin-2-yl)propanoic Acid] | 1.08 | 76.8
14 | Cc1ccc([C@H](c2ccn3c(C(F)(F)F)nnc3c2C)C(C)(C)C(=O)O)cc1CN1CC2(CCOCC2)Oc2nc(N[C@H](C)C(C)(C)O)c(C)cc2S1(=O)=O (single isomer, unassigned) [Example 124, (*R)-3-(3-((7′-(((R)-3-Hydroxy-3-methylbutan-2-yl)amino)-8′-methyl-1′,1′-dioxido-2,3,5,6-tetrahydrospiro[pyran-4,4′-pyrido[2,3-b][1,4,5]oxathiazepin]-2′(3′H)-yl)methyl)-4-methylphenyl)-2,2-dimethyl-3-(8-methyl-3-(trifluoromethyl)-[1,2,4]triazolo[4,3-a]pyridin-7-yl)propanoic Acid] | < 1 | 28.8
15 | Cc1ccc(C(CC(=O)O)c2ccc3c(nnn3C3CC3)c2C)cc1CN1C[C@H]2CCCN2c2ncccc2S1(=O)=O (mixture of isomers) [Example 209, (R/S)-3-(1-Cyclopropyl-4-methyl-1H-benzo[d][1,2,3]triazol-5-yl)-3-(3-(((R)-5,5-dioxido-7a,8,9,10-tetrahydropyrido[2,3-f]pyrrolo[2,1-d][1,2,5]thiadiazepin-6(7H)-yl)methyl)-4-methylphenyl)propanoic Acid] | < 1 | 8.8
16 | CCn1nnc2c(C)c([C@H](CC(=O)O)c3ccc(C)c(CN4C[C@H]5CCCN5c5ncccc5S4(=O)=O)c3)ccc21 (single isomer, unassigned) [Example 22, (*R)-3-(3-(((R)-5,5-Dioxido-7a,8,9,10-tetrahydropyrido[2,3-f]pyrrolo[2,1-d][1,2,5]thiadiazepin-6(7H)-yl)methyl)-4-methylphenyl)-3-(1-ethyl-4-methyl-1H-benzo[d][1,2,3]triazol-5-yl)propanoic Acid] | 0.081 | 3.9
17 | Cc1cnc2c(c1)S(=O)(=O)N(Cc1nc([C@@H](CC(=O)O)c3ccn4c(C(F)(F)F)nnc4c3C)ccc1C)C[C@H]1CCCCN21 (single isomer, unassigned) [Example 491, (*S)-3-(8-Methyl-3-(trifluoromethyl)-[1,2,4]triazolo[4,3-a]pyridin-7-yl)-3-(5-methyl-6-(((*R)-3-methyl-5,5-dioxido-7,7a,8,9,10,11-hexahydro-6H-dipyrido[2,1-d:2′,3′-f][1,2,5]thiadiazepin-6-yl)methyl)pyridin-2-yl)propanoic Acid] | < 1 | 5.53
